Source: ChEMBL document CHEMBL1201862, “PubChem BioAssay data set” (2004)
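Results reflect a 48-hour exposure of cells in 96-well plates to compound at five concentrations. Here, GI50 denotes the concentration required for 50% inhibition of growth.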 Activity calls are given as the source filed them. No stated cut-off is given here; in the data, active = GI50 up to about 1.1 µM and inactive = higher.

Tests used:
Experiment in all cases: NCI tumour cell line growth inhibition, 48 h
EKVX = system: EKVX
HOP-18 = system: HOP-18
RXF 393 = system: RXF 393
SNB-78 = system: SNB-78
OVCAR-8 = system: OVCAR-8
TK-10 = system: TK-10
Malme-3M = system: Malme-3M
RPMI-8226 = system: RPMI-8226
NCI-H23 = system: NCI-H23
T47D = system: T47D
A549 = system: A549
IGROV-1 = system: IGROV-1
OVCAR-3 = system: OVCAR-3
NCI-H522 = system: NCI-H522
HCT-15 = system: HCT-15
CCRF-CEM = system: CCRF-CEM
A498 = system: A498
M14 = system: M14
NCI-H226 = system: NCI-H226
HCC 2998 = system: HCC 2998
DMS-273 = system: DMS-273
HOP-92 = system: HOP-92
NCI-H460 = system: NCI-H460
KM12 = system: KM12
BT-549 = system: BT-549
OVCAR-5 = system: OVCAR-5
NCI/ADR-RES = system: NCI/ADR-RES
UO-31 = system: UO-31
CAKI-1 = system: CAKI-1
SR = system: SR
COLO 205 = system: COLO 205
HT-29 = system: HT-29
UACC-62 = system: UACC-62
MDA-MB-231 = system: MDA-MB-231
SNB-19 = system: SNB-19
DU-145 = system: DU-145
LOX IMVI = system: LOX IMVI
SN12C = system: SN12C
OVCAR-4 = system: OVCAR-4
ACHN = system: ACHN
HCT-116 = system: HCT-116
M19-MEL = system: M19-MEL
SK-MEL-5 = system: SK-MEL-5
HL-60 = system: HL-60
K562 = system: K562
786-0 = system: 786-0
KM-20L2 = system: KM-20L2
SF-295 = system: SF-295
MCF7 = system: MCF7
SK-MEL-28 = system: SK-MEL-28
PC-3 = system: PC-3
SW-620 = system: SW-620
Hs-578T = system: Hs-578T
SK-MEL-2 = system: SK-MEL-2
SF-268 = system: SF-268
SNB-75 = system: SNB-75
MDA-N = system: MDA-N
SK-OV-3 = system: SK-OV-3
UACC-257 = system: UACC-257
U-251 = system: U-251
DMS-114 = system: DMS-114
SF-539 = system: SF-539
XF498 = system: XF498
DLD-1 = system: DLD-1
MDA-MB-435 = system: MDA-MB-435
HOP-62 = system: HOP-62
MOLT-4 = system: MOLT-4
LXFL 529 = system: LXFL 529

Measured: GI50

O=NN(CCCl)C(=O)NC1CCC(=O)NC1=O (centres undefined)
inactive: EKVX 415 µM | HOP-18 432 µM | RXF 393 232 µM | SNB-78 176 µM | OVCAR-8 50 µM | TK-10 379 µM | Malme-3M 221 µM | RPMI-8226 220 µM | NCI-H23 277 µM | T47D 384 µM | A549 182 µM | IGROV-1 365 µM | OVCAR-3 818 µM | NCI-H522 225 µM | CCRF-CEM 75.5 µM | A498 174 µM | M14 356 µM | NCI-H226 232 µM | HCC 2998 713 µM | DMS-273 160 µM | HOP-92 143 µM | NCI-H460 83.8 µM | KM12 212 µM | BT-549 251 µM | OVCAR-5 804 µM | NCI/ADR-RES 193 µM | UO-31 676 µM | CAKI-1 270 µM | SR 25.4 µM | COLO 205 267 µM | HT-29 807 µM | UACC-62 25.5 µM | MDA-MB-231 286 µM | SNB-19 112 µM | DU-145 337 µM | LOX IMVI 48.2 µM | SN12C 243 µM | OVCAR-4 893 µM | ACHN 428 µM | HCT-116 215 µM | M19-MEL 250 µM | SK-MEL-5 121 µM | HL-60 66.7 µM | K562 153 µM | 786-0 61.7 µM | KM-20L2 800 µM | SF-295 30.3 µM | MCF7 330 µM | SK-MEL-28 409 µM | PC-3 745 µM | SW-620 67.8 µM | Hs-578T 348 µM | SK-MEL-2 225 µM | SF-268 38.7 µM | SNB-75 60.5 µM | MDA-N 224 µM | SK-OV-3 526 µM | UACC-257 335 µM | U-251 52.8 µM | DMS-114 214 µM | SF-539 50.8 µM | XF498 69 µM | DLD-1 358 µM | MDA-MB-435 191 µM | HOP-62 144 µM | MOLT-4 49.2 µM
300 µM: HCT-15

CC/C(CC(=O)CCC(=O)Nc1ccc(C)c(C)c1)=N\NC(=O)C(N)=O
> 100 µM: HCT-15
inactive: EKVX > 100 µM | HOP-18 > 100 µM | SNB-78 > 100 µM | OVCAR-8 > 100 µM | TK-10 > 100 µM | Malme-3M > 100 µM | RPMI-8226 > 100 µM | NCI-H23 > 100 µM | A549 > 100 µM | IGROV-1 > 100 µM | OVCAR-3 > 100 µM | NCI-H522 > 100 µM | CCRF-CEM > 100 µM | A498 > 100 µM | M14 > 100 µM | NCI-H226 > 100 µM | DMS-273 > 100 µM | HOP-92 > 100 µM | OVCAR-5 > 100 µM | UO-31 > 100 µM | CAKI-1 > 100 µM | SR > 100 µM | COLO 205 > 100 µM | HT-29 > 100 µM | UACC-62 > 100 µM | SNB-19 > 100 µM | SN12C > 100 µM | OVCAR-4 > 100 µM | ACHN > 100 µM | HCT-116 > 100 µM | M19-MEL > 100 µM | SK-MEL-5 > 100 µM | HL-60 > 100 µM | K562 > 100 µM | LXFL 529 > 100 µM | 786-0 > 100 µM | KM-20L2 > 100 µM | SF-295 > 100 µM | SK-MEL-28 > 100 µM | SW-620 > 100 µM | SF-268 > 100 µM | SNB-75 > 100 µM | SK-OV-3 > 100 µM | UACC-257 > 100 µM | U-251 > 100 µM | DMS-114 > 100 µM | SF-539 > 100 µM | XF498 > 100 µM | DLD-1 > 100 µM | HOP-62 > 100 µM | MOLT-4 > 100 µM

C=CCn1cc(C(=O)NC(=O)NCCCCCOC(=O)CCCCCCCCCCC(=O)OCCCCCNC(=O)NC(=O)c2cn(CC=C)c(=O)n(C)c2=O)c(=O)n(C)c1=O
> 100 µM: HCT-15
inactive: EKVX > 100 µM | HOP-18 71.8 µM | RXF 393 > 100 µM | SNB-78 > 100 µM | OVCAR-8 > 100 µM | TK-10 > 100 µM | Malme-3M > 100 µM | RPMI-8226 > 100 µM | NCI-H23 > 100 µM | A549 > 100 µM | IGROV-1 > 100 µM | OVCAR-3 > 100 µM | NCI-H522 > 100 µM | CCRF-CEM > 100 µM | A498 > 100 µM | M14 > 100 µM | NCI-H226 > 100 µM | HCC 2998 > 100 µM | DMS-273 > 100 µM | HOP-92 > 100 µM | NCI-H460 > 100 µM | KM12 > 100 µM | OVCAR-5 > 100 µM | UO-31 > 100 µM | CAKI-1 > 100 µM | COLO 205 > 100 µM | HT-29 > 100 µM | UACC-62 > 100 µM | SNB-19 > 100 µM | LOX IMVI > 100 µM | SN12C > 100 µM | ACHN > 100 µM | HCT-116 > 100 µM | M19-MEL > 100 µM | SK-MEL-5 > 100 µM | HL-60 > 100 µM | K562 > 100 µM | LXFL 529 > 100 µM | 786-0 > 100 µM | KM-20L2 > 100 µM | SK-MEL-28 > 100 µM | SW-620 > 100 µM | SK-MEL-2 > 100 µM | SF-268 > 100 µM | SNB-75 > 100 µM | SK-OV-3 > 100 µM | UACC-257 > 100 µM | U-251 > 100 µM | DMS-114 > 100 µM | SF-539 > 100 µM | XF498 > 100 µM | DLD-1 > 100 µM | HOP-62 > 100 µM | MOLT-4 > 100 µM
